Results from patent US11014961B2, “Self-labeling miniproteins and conjugates comprising them” (priority 2017, dated 2021).
No end group written: not given here.

Experiments:
Assay type in all cases: biochemical
[1] = Labeling conversion of MP with the selection capture agent (LC-MS TIC); conditions: 0.5 mM CA, 0.1 mM MP, 5 mM TCEP, 1× selection buffer, pH 7.4
Protocol: All 10 putative self-labeling MPs were chemically synthesized (MP01 and MP02 were additionally made with the full C-terminal constant region). To determine the importance of the C-terminal tag, a kinetic analysis on MP01 was conducted comparing the sequence with and without the tag. […] The remainder of the MPs all reacted with varying second order rate constants and to differing product distributions from multiple cysteine labeling sites (Table 3). […] Of the sequences containing multiple cysteines, all reacted to differing extents. […] On the other hand, MP08 (SEQ ID NO: 53) reacted sluggishly (0.04 μM^−1 s^−1) to produce singly and doubly labeled species. The sole sequence containing three cysteines, MP05 (SEQ ID NO: 44), yielded a mixture of labeled species within an 8-hour reaction—primarily existing with either 2 or 3 labels with a rapid initial labeling process (0.93±0.11 μM^−1 s^−1). Finally, MP01, 07 and 10 (SEQ ID NOs: 13, 52, and 59, respectively) were probed via proteolytic digest-LC-MS/MS analysis, this confirmed that the cysteines were labeled and not an alternative amino acid. […] Conditions used were 0.5 mM CA, 0.1 mM MP, 5 mM TCEP, 1× selection buffer, pH 7.4.

[2] = Second order rate constant of the reaction between miniprotein (MP) and capture agent (CA), LC-MS TIC peak integration; conditions: for Second order rate constant: 0.1 mM MP, 0.5 mM CA
[3] = Labeling conversion of MP with the modified capture agent (LC-MS TIC); conditions: 0.5 mM mCA, 0.1 mM MP, 5 mM TCEP, 1× selection buffer, pH 7.4
Protocol: A solution consisting of 5 mM carboxy-(PEG)12-thiol, 500 mM pentafluorophenyl sulfide, 20 mM triphenylphosphine and 230 mM DIEA in acetonitrile was vortexed and left at room temperature for 4 hours. The reaction was then diluted with 10.6× volume of 95% A: 5% B, solid phase extracted and lyophilized. The resulting material was analyzed by LCMS (method 2). This product will later be referred to as mCA (modified CA).
All 10 putative self-labeling MPs were chemically synthesized (MP01 and MP02 were additionally made with the full C-terminal constant region). To determine the importance of the C-terminal tag, a kinetic analysis on MP01 was conducted comparing the sequence with and without the tag. […] The remainder of the MPs all reacted with varying second order rate constants and to differing product distributions from multiple cysteine labeling sites (Table 3). […] Of the sequences containing multiple cysteines, all reacted to differing extents. […] On the other hand, MP08 (SEQ ID NO: 53) reacted sluggishly (0.04 μM^−1 s^−1) to produce singly and doubly labeled species. The sole sequence containing three cysteines, MP05 (SEQ ID NO: 44), yielded a mixture of labeled species within an 8-hour reaction—primarily existing with either 2 or 3 labels with a rapid initial labeling process (0.93±0.11 μM^−1 s^−1). […]

[4] = 5 mM TCEP, 1× selection buffer pH 7.4, RT, a: average of three MP concentrations, c: labeled 1-3 times, d: labeled 1-2 times

Substance	conversion with selection CA [1]	rate enhancement over a non-selected Cys peptide [2]	Second order rate constant [2, 4]	conversion with modified CA (mCA) [3]	Second order rate constant ([2]; 5 mM TCEP, 1× selection buffer pH 7.4, RT)	second order rate constant, second MP01 construct ([2]; MP01 construct with C-terminal tag (per Table 3 footnote b), standard conditions)	Second order rate constant ([2]; footnote b: construct with the full length C-terminal region (-SGSLGHHHHHHRL))
MHNAYLRKSMRQLCYFRRTLHNIHVMSHRG-NH2 [MP10]	91%	~529 ×	1.66 ± 0.48^a M^−1 s^−1	96%	–	–	–
MHQKYKMTKDCFFSFLAHHKKRKLYPMSG-NH2 [MP01]	83%	–	0.34 ± 0.06^a/ M^−1 s^−1	91%	0.34 M⁻¹ s⁻¹	0.28 M⁻¹ s⁻¹	0.28 ± 0.02^b M^−1 s^−1
